Data reported in patent US20090042240A1, “RAPID DETECTION OF ANTIMICROBIAL DRUG RESIDUES” (priority 2006, published 2009).

What was measured:
[1] = cited from earlier work; for Lowest official MRL: official Maximum Residue Limit, unit assumed; for MRL: MRL stated by the European Community
Escherichia coli = conditions: additional study 1997; microorganism frozen in skimmed milk, cells washed with saline; cited from earlier work
Escherichia coli strains = conditions: Choi et al. 1999, animal tissues; cited from earlier work
[2] = tested on: Escherichia coli ATCC 11303; conditions: milk; Escherichia coli ATCC 11303 frozen in 10% glycerol; cited from earlier work
[3] = tested on: Escherichia coli strain ATCC 11303; test: Liquid based microbial screening test for quinolones (Example 2); format: cell-based; conditions: spiked demineralized water, 100 μl sample, 37° C., 4 hours and 45 minutes, colour change purple to yellow
Experimental: In this experiment a liquid based microbial screenings test for the detection of quinolones is described. The quinolone medium used in this experiment is prepared by dissolving the following compounds in 1 liter of demineralized water: • 8.5 gram of Plate Count Broth (PCB) (Difco, cat. no: 275120); • 20 gram of NaCl (Merck, cat. no: 106404); • 0.042 gram of Bromocresol purple (Merck, cat. no: 103025). Escherichia coli strain ATCC 11303 was grown using well-known methods. The test medium was prepared by adding Escherichia coli cells to the quinolone medium to a final concentration of approximately 10^5 cells/ml. The test was prepared by addition of 250 μl of medium containing the test organism in each test ampoule. Spiked samples were prepared by adding different concentrations of the quinolones described in Table 1 to demineralized water. 100 μl of the spiked sample was added to the test ampoule, a negative control (water without quinolones) was included. The tests were incubated at 37° C. for 4 hours and 45 minutes. The tests were read at the time the test incubated with the negative control sample (water without quinolones) changed color from purple to yellow.

[4] = tested on: Escherichia coli strain ATCC 11303; test: Detection of quinolones in chicken muscle by solvent extraction, then liquid test (Example 7); format: cell-based; conditions: acetonitrile/acetone extraction
Experimental: Escherichia coli strain ATCC 11303 was grown using well-known methods. The test medium was prepared by adding Escherichia coli cells to the quinolone medium to a final concentration of approximately 10^5 cells/ml. The test was prepared by addition of 250 μl of medium containing the test organism in each test ampoule. Spiked samples were prepared by adding different concentrations of the quinolones described in Table 1 to demineralized water. 100 μl of the spiked sample was added to the test ampoule, a negative control (water without quinolones) was included. The tests were incubated at 37° C. for 4 hours and 45 minutes. The tests were read at the time the test incubated with the negative control sample (water without quinolones) changed color from purple to yellow. In this experiment a mixture of acetonitrile/acetone is used to extract antimicrobial compounds out of the sample, further the experiment is executed as described in Example 2. The sample is obtained as follows: • 1. Weigh out 4 g (±0.03) of sample into a 50 ml plastic disposable centrifuge tube; • 2. Add 10 ml acetonitrile/acetone 70:30 (v/v); • 3. […] Homogenize for 30-40 seconds using an Ultra Turrax; • 5. Place in an ultrasonic bath for 5-10 minutes, then vortex mix for 30-40 seconds; • 6. Centrifuge for 10-12 minutes at 4200 G at 4° C.; • 7. […]

[5] = agar diffusion, Tsai and Kondo 2001; cited from earlier work

| Structure (SMILES) | Lowest official MRL [1] | sensitivity (Escherichia coli) | detection limit (Escherichia coli strains) | sensitivity [2] | Detection level [3] | concentration detected [4] | sensitivity [5] | MRL [1] |
| --- | --- | --- | --- | --- | --- | --- | --- | --- |
| CN1C[C@@H]2C[C@H]1CN2c1cc2c(cc1F)c(=O)c(C(=O)O)cn2C1CC1 [Danofloxacin] | 30 µg/kg | 8 ppb |  |  |  |  |  |  |
| CCN1CCN(c2cc3c(cc2F)c(=O)c(C(=O)O)cn3C2CC2)CC1 [Enrofloxacin] |  | 6 ppb | 50 ppb | 2 ppb |  |  |  |  |
| CC1CCc2cc(F)cc3c(=O)c(C(=O)O)cn1c23 (centres unmarked) [Flumequin] | 400 µg/kg |  |  |  | 100 | 10 µg/kg |  |  |
| CCn1cc(C(=O)O)c(=O)c2cc3c(cc21)OCO3 [Oxolinic acid] | 100 µg/kg |  |  |  |  | 10 µg/kg | 200 ppb |  |
| O=C(O)c1cn(-c2ccc(F)cc2)c2cc(N3CCNCC3)c(F)cc2c1=O [Sarafloxacin] | 10 µg/kg | 15 ppb | 250 ppb |  |  |  |  | 100 ppb |
| CN1CCN(c2cc3c(cc2F)c(=O)c(C(=O)O)cn3-c2ccc(F)cc2)CC1 [difloxacin] |  |  | 250 ppb |  |  |  |  | 10 ppb |
